From ChEMBL document CHEMBL1201862, “PubChem BioAssay data set” (2004)
Activity calls are given as the source filed them.

Legend:
[1] = molecular target: Dual specificity protein kinase CLK1 (Homo sapiens, UniProt P49759); experiment: CLK1 kinase inhibitors, off-target check, dose response, selectivity assay for Dyrk1A inhibitor project, biochemical, cherry-picked samples (AID 588811)
BJ [2] = experiment: cells; assay type: functional, cell-based; settings: Homo sapiens
BJ [3] = experiment: cytotoxicity toward Ras-transformed BJeLR fibroblasts, dose response, cell-based, alamar blue fluorescence, cherrypicked samples (AID 2631); assay type: functional; settings: Homo sapiens;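 note: confirmatory dose-response assay in RAS-dependent BJ fibroblasts engineered with TERT, LT and ST, with cytotoxicity read by fluorescence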
[4] = cytotoxicity toward DRD oncogenic fibroblasts, dose response, cell-based, non-viral oncogenic, luminescence (AID 1934); assay type: functional; settings: Homo sapiens
[5] = molecular target: Delta-type opioid receptor (Homo sapiens, UniProt P41143); experiment: Counterscreen for agonists of heterodimerization of the mu 1 (OPRM1) and delta 1 (OPRD1) opioid receptors: Luminescence-based cell-based high throughput dose response assay to identify agonists of OPRD1 homodimerization. [Related pubchem assays (depositor defined):AID504326, AID504355, AID504692, AID504904, AID504905]; assay type: functional
Sequence of Delta-type opioid receptor (P41143 whole entry): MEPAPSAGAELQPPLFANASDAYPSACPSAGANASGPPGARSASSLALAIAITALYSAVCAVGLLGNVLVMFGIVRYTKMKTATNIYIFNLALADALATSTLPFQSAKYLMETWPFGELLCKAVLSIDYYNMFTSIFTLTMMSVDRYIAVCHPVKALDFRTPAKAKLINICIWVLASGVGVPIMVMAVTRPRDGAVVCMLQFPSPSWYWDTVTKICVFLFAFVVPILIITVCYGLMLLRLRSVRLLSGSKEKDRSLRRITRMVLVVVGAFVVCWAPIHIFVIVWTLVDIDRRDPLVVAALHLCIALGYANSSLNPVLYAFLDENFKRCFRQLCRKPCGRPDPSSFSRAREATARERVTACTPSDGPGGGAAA

[6] = molecular target: Luciferin 4-monooxygenase (Photinus pyralis, UniProt P08659); experiment: firefly luciferase enzyme inhibitors, dose response, biochemical, luminescence (AID 1891)
Sequence of Luciferin 4-monooxygenase (P08659 whole entry): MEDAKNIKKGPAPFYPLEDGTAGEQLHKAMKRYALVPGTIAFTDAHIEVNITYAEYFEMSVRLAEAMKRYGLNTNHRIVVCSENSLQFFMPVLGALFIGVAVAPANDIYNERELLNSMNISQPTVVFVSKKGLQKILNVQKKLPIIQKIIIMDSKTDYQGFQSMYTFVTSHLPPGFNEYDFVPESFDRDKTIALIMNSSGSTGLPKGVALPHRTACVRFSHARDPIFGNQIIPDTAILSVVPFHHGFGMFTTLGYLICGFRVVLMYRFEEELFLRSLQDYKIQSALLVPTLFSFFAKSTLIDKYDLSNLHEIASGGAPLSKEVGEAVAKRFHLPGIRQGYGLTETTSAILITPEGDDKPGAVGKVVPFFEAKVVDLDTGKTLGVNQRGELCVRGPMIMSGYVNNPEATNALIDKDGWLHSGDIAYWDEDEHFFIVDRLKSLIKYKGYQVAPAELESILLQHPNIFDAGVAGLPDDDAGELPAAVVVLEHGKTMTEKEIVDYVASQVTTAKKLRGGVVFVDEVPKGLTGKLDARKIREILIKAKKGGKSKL

Mu-type opioid receptor = Mu-type opioid receptor (Homo sapiens, UniProt P35372); experiment: Counterscreen for agonists of heterodimerization of the mu 1 (OPRM1) and delta 1 (OPRD1) opioid receptors: Luminescence-based cell-based high throughput dose response assay to identify agonists of OPRM1 homodimerization.; assay type: functional;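 note: U2OS cells expressing OPRM1 and beta-arrestin as split beta-galactosidase partners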
Sequence of Mu-type opioid receptor (P35372 whole entry): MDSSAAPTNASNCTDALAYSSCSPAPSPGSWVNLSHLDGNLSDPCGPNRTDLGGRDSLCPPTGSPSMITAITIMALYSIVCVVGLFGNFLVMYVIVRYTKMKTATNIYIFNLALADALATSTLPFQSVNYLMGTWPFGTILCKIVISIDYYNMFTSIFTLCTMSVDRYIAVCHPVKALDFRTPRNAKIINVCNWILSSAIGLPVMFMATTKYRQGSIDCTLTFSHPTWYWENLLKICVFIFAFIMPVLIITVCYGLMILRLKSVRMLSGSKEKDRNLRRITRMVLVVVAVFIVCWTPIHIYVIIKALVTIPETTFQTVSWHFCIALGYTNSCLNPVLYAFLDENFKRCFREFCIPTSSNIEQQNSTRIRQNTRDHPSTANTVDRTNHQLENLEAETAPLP

BJ [7] = experiment: cytotoxicity toward BJ-TERT fibroblasts, dose response, cell-based, RAS-independent, luminescence (AID 1933); assay type: functional; settings: Homo sapiens
BJ [8] = experiment: cytotoxicity toward BJ-TERT-LT-ST fibroblasts, dose response, cell-based, RAS-independent, luminescence (AID 1935); assay type: functional; settings: Homo sapiens;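 note: BJ fibroblasts immortalized with TERT plus LT and ST oncogenes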
[9] = Luminescence Cell-Based Dose Confirmation HTS to Identify Inhibitors of Platelet Dense Granule Release. [Related pubchem assays: 1663 (Primary HTS), 1678 (Summary of Project)]; assay type: functional
[10] = molecular target: 5-hydroxytryptamine receptor 5A (Homo sapiens, UniProt P47898); experiment: Counterscreen for agonists of OPRM1-OPRD1 heterodimerization: luminescence-based cell-based high throughput dose response assay to identify agonists of 5-hydroxytryptamine (serotonin) 5A receptor (HTR5A). [Related pubchem assays (depositor defined):AID504326, AID504355, AID504692, AID504904, AID504905]; assay type: functional
Sequence of 5-hydroxytryptamine receptor 5A (P47898 whole entry): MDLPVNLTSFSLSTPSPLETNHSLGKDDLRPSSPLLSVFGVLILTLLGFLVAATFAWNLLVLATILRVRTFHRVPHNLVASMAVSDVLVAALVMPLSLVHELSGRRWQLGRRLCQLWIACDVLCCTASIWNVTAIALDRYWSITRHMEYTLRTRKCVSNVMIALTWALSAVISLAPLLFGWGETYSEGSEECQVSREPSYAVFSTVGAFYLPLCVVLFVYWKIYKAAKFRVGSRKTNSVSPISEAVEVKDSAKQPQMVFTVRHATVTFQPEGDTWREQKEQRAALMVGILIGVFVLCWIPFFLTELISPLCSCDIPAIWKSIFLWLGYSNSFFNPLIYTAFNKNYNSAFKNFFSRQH

Escherichia coli = experiment: microbe, parasite or virus in culture
Phospholipase D2 = Phospholipase D2 (Homo sapiens, UniProt O14939); experiment: PLD2 inhibitor potency in cells, dose response (AID 602147); assay type: functional;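 note: cellular assay in HEK293 cells overexpressing GFP-tagged PLD2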
Sequence of Phospholipase D2 (O14939 whole entry): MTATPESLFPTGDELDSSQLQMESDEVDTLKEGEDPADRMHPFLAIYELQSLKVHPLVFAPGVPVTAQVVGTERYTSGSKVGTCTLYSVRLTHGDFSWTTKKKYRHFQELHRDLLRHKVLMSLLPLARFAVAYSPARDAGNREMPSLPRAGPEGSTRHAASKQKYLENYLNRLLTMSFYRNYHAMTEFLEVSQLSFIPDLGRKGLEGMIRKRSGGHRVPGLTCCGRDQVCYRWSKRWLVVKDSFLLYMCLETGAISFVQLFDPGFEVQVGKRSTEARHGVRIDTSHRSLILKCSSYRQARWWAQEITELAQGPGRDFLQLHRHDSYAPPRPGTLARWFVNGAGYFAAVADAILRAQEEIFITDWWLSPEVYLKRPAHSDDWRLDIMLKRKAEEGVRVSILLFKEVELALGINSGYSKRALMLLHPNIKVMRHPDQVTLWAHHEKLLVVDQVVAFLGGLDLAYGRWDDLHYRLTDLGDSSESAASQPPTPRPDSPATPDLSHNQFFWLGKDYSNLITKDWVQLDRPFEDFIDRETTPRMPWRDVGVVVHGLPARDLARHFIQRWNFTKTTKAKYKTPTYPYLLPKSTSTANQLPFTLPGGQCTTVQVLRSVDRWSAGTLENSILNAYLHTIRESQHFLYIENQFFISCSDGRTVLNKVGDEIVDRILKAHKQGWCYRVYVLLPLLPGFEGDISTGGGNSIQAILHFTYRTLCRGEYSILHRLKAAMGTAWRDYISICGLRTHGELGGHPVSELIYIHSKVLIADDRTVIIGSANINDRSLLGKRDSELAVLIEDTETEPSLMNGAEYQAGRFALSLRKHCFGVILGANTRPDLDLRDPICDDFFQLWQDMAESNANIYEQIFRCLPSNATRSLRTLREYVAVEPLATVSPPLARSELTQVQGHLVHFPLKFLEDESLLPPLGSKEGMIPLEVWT

Phospholipase D1 = Phospholipase D1 (Homo sapiens, UniProt Q13393); experiment: PLD1 inhibitor potency in cells, dose response (AID 602151); assay type: functional;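 note: cellular PLD1 assay in Calu-1 cells stimulated with PMA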
Sequence of Phospholipase D1 (Q13393 whole entry): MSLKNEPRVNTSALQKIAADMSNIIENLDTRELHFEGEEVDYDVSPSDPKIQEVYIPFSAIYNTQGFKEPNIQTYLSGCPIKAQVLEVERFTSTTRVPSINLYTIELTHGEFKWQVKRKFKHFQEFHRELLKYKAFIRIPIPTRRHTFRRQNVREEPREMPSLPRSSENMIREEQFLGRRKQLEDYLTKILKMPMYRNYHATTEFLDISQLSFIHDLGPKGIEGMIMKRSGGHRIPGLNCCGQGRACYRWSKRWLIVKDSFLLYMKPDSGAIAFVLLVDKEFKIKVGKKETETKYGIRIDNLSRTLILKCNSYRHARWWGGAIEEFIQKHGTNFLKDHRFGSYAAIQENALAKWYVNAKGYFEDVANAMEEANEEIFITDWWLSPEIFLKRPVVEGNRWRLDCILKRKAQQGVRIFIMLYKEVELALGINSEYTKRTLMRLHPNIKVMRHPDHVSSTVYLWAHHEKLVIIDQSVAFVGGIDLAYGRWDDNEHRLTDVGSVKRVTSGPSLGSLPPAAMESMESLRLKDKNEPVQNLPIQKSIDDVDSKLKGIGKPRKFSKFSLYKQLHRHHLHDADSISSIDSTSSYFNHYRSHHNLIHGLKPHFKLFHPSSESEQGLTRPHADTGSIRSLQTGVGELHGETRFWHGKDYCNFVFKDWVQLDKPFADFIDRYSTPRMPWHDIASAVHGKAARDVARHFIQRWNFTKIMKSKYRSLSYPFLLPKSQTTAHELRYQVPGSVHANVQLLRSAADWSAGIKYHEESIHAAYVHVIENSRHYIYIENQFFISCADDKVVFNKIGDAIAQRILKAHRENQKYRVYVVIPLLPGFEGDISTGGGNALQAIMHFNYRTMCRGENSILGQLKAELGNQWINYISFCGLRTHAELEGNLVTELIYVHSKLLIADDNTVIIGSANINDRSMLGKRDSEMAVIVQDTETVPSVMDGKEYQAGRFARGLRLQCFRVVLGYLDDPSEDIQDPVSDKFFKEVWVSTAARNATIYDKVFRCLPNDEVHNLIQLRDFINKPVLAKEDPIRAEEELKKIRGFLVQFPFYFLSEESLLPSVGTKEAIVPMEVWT

HeLa = experiment: HeLa cell cytotoxicity, dose response, cytotoxicity control for MITF activator project, CellTiter-Glo luminescence, cherry-pick samples (AID 540259); assay type: functional, cell-based; settings: Homo sapiens
[11] = molecular target: Dual specificity protein phosphatase 3 (Homo sapiens, UniProt P51452); experiment: SAR VHR1 Fluorescent Assay for In Vitro dose response studies Set 3. [Related pubchem assays (depositor defined):AID1654, AID1661, AID1878]; assay type: functional
Sequence of Dual specificity protein phosphatase 3 (P51452 whole entry): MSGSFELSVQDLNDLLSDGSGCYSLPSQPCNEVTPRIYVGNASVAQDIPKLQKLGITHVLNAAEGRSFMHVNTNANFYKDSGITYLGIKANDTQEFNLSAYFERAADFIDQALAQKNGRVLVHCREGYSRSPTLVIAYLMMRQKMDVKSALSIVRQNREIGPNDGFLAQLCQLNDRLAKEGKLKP

Sequence of Dual specificity protein kinase CLK1 (P49759 whole entry): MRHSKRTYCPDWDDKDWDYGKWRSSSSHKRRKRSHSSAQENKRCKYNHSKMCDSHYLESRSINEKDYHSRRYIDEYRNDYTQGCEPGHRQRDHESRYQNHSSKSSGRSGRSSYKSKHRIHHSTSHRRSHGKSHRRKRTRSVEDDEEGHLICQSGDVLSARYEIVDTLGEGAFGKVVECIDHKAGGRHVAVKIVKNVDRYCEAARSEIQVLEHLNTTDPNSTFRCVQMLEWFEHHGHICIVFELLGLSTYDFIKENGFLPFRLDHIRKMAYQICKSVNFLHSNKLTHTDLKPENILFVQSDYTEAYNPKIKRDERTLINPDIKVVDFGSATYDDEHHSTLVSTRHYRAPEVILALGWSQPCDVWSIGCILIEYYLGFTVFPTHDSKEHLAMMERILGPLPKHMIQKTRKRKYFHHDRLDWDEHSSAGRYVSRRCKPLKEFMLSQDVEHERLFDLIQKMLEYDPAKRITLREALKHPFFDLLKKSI

Fc1c(-c2ccc3ncnc(NCc4cccs4)c3c2)ccc2c1OCO2
AC50 [1]: 0.057 µM (active)

Cc1occc1C(=O)N/N=C/c1ccc(-c2ccccc2)cc1
EC50 (BJ [2]): 3.14 µM (active)
EC50 (BJ [3]): > 133 µM (inactive)
EC50 [4]: 3.41 µM (active)
EC50 [5]: > 92.4 µM (inactive)
EC50 [6]: 0.151 µM (active)
EC50 (Mu-type opioid receptor): > 92.4 µM (inactive)
EC50 (BJ [7]): 4.43 µM (active)
EC50 (BJ [8]): 10.3 µM (active)
EC50 [9]: 0.897 µM (active)
EC50 [10]: > 92.4 µM (inactive)

Cc1cc(Cl)c(S(=O)(=O)NC(C(=O)O)C(C)C)cc1OCC(=O)NC1CCCCC1 (stereo unspecified)
AC50 (Escherichia coli): 25.9 µM (active)

C[C@H](CN1CCC2(CC1)C(=O)NCN2c1ccccc1)NC(=O)c1ccc(F)cc1
IC50 (Phospholipase D2): 0.2 µM (active)
IC50 (Phospholipase D1): 0.413 µM (active)

CC1CCN(c2oc(-c3ccccc3Cl)nc2C#N)CC1
AC50 (HeLa): 73 µM (active)

COc1cccc2sc(NC(=O)c3ccccc3)nc12
IC50 [11]: > 66 µM (inactive)
